Source: ChEMBL document CHEMBL5331076, “Streptogramin A derivatives as mitochondrial translation inhibitors to suppress glioblastoma stem cell growth” (Eur J Med Chem, 2023)
The source made the active and inactive calls. No cut-off for these calls is given here. *1 amine or outer side, *2 acyl side, *3 side chain or, on linkers, in order; H or OH if unused. Where a SMILES comes first, the peptide text is derived from it. Bridges are numbered along the chain shown (N, C = ends). [ ]: non-standard residue; d: D form. The star is where a group is joined. X1 = O=C1C[C@@H](C(=O)[*:2])N([*:1])C[C@H]1CS[C@@H]1CN2CCC1CC2; NMePhe(4-NMe2) = CN[C@@H](Cc1ccc(N(C)C)cc1)C(=O)O; Picolinoyl(3-OH) = O=C(c1ncccc1O)*; Phg = N[C@H](C(=O)O)c1ccccc1; dAbu = CC[C@@H](N)C(=O)O

How the values were obtained:
COMI [1] = experiment: Inhibition of mitochondrial translation in human COMI cells assessed as decrease in COX2 expression level at 0.5 uM incubated for 24 hrs in the presence of dalfopristin and emetine by [35S]-methionine labelling based SDS-PAGE analysis; assay type: functional, cell-based
COMI [2] = experiment: Inhibition of mitochondrial translation in human COMI cells assessed as increase in COX4 expression level at 0.5 to 5 uM incubated for 48 hrs by immunoblotting analysis; assay type: functional, cell-based; conditions: dose 0.5-5 µM
VIPI [3] = experiment: Growth inhibition of human VIPI cells in the presence of dalfopristin; assay type: functional
COMI [4] = experiment: Growth inhibition of human COMI cells incubated for 48 hrs by Hoechst 33342/PI staining based analysis; assay type: functional
COMI [5] = experiment: Inhibition of mitochondrial translation in human COMI cells assessed as decrease in COX1 expression level at 0.5 uM incubated for 24 hrs in the presence of dalfopristin and emetine by [35S]-methionine labelling based SDS-PAGE analysis; assay type: functional, cell-based
COMI [6] = experiment: Inhibition of mitochondrial translation in human COMI cells assessed as decrease in ND3 expression level at 0.5 to 5 uM incubated for 48 hrs in the presence of dalfopristin by immunoblotting analysis; assay type: functional, cell-based; conditions: dose 0.5-5 µM
VIPI [7] = experiment: Growth inhibition of human VIPI cells incubated for 48 hrs by Hoechst 33342/PI staining based analysis; assay type: functional
COMI [8] = experiment: Inhibition of mitochondrial translation in human COMI cells assessed as decrease in ND3 expression level at 0.5 uM incubated for 24 hrs in the presence of dalfopristin and emetine by [35S]-methionine labelling based SDS-PAGE analysis; assay type: functional, cell-based
COMI [9] = experiment: Potency index, ratio of temozolomide GI50 to test compound GI50 for human COMI cells in the presence of dalfopristin; assay type: functional
[10] = Potency index, ratio of temozolomide GI50 to test compound GI50 for human VIPI cells in the presence of dalfopristin; assay type: functional
COMI [11] = experiment: Inhibition of mitochondrial translation in human COMI cells assessed as decrease in COX1 expression level at 0.5 to 5 uM incubated for 48 hrs in the presence of dalfopristin by immunoblotting analysis; assay type: functional, cell-based; conditions: dose 0.5-5 µM
COMI [12] = experiment: Growth inhibition of human COMI cells incubated for 48 hrs in the presence of dalfopristin by Hoechst 33342/PI staining based analysis; assay type: functional
COMI [13] = experiment: Inhibition of mitochondrial translation in human COMI cells assessed as decrease in COX2 expression level at 0.5 to 5 uM incubated for 48 hrs in the presence of dalfopristin by immunoblotting analysis; assay type: functional, cell-based; conditions: dose 0.5-5 µM
COMI [14] = experiment: Growth inhibition of human COMI cells in the presence of dalfopristin; assay type: functional
COMI [15] = experiment: Inhibition of mitochondrial translation in human COMI cells assessed as decrease in COX2 expression level at 0.5 to 5 uM incubated for 48 hrs by immunoblotting analysis; assay type: functional, cell-based; conditions: dose 0.5-5 µM
COMI [16] = experiment: Inhibition of mitochondrial translation in human COMI cells assessed as decrease in COX2 expression level at 0.38 to 2 uM incubated for 24 hrs in the presence of emetine by [35S]-methionine labelling based SDS-PAGE analysis; assay type: functional, cell-based; conditions: dose 0.38-2 µM
COMI [17] = experiment: Inhibition of mitochondrial translation in human COMI cells assessed as decrease in COX1 expression level at 0.38 to 2 uM incubated for 24 hrs in the presence of emetine by [35S]-methionine labelling based SDS-PAGE analysis; assay type: functional, cell-based; conditions: dose 0.38-2 µM
COMI [18] = experiment: Inhibition of mitochondrial translation in human COMI cells assessed as decrease in COX1 expression level at 0.5 to 5 uM incubated for 48 hrs by immunoblotting analysis; assay type: functional, cell-based; conditions: dose 0.5-5 µM
VIPI [19] = experiment: Growth inhibition of human VIPI cells incubated for 48 hrs in the presence of dalfopristin by Hoechst 33342/PI staining based analysis; assay type: functional
COMI [20] = experiment: Inhibition of mitochondrial translation in human COMI cells assessed as decrease in ND3 expression level at 0.38 to 2 uM incubated for 24 hrs in the presence of emetine by [35S]-methionine labelling based SDS-PAGE analysis; assay type: functional, cell-based; conditions: dose 0.38-2 µM
COMI [21] = experiment: Inhibition of mitochondrial translation in human COMI cells assessed as decrease in ND3 expression level at 0.5 to 5 uM incubated for 48 hrs by immunoblotting analysis; assay type: functional, cell-based; conditions: dose 0.5-5 µM
COMI [22] = experiment: Inhibition of mitochondrial translation in human COMI cells assessed as increase in COX4 expression level at 0.5 to 5 uM incubated for 48 hrs in the presence of dalfopristin by immunoblotting analysis; assay type: functional, cell-based; conditions: dose 0.5-5 µM
VIPI [23] = experiment: Growth inhibition of human VIPI cells incubated for 48 hrs in the presence of quinupristin by Hoechst 33342/PI staining based analysis; assay type: functional
COMI [24] = experiment: Inhibition of mitochondrial translation in human COMI cells assessed as decrease in ND3 expression level at 0.5 uM incubated for 24 hrs in the presence of quinupristin and emetine by [35S]-methionine labelling based SDS-PAGE analysis; assay type: functional, cell-based
COMI [25] = experiment: Inhibition of mitochondrial translation in human COMI cells assessed as decrease in COX2 expression level at 0.38 uM incubated for 24 hrs in the presence of emetine by [35S]-methionine labelling based SDS-PAGE analysis; assay type: functional, cell-based
COMI [26] = experiment: Inhibition of mitochondrial translation in human COMI cells assessed as decrease in COX2 expression level at 0.5 to 5 uM incubated for 48 hrs in the presence of quinupristin by immunoblotting analysis; assay type: functional, cell-based; conditions: dose 0.5-5 µM
COMI [27] = experiment: Growth inhibition of human COMI cells incubated for 48 hrs in the presence of quinupristin by Hoechst 33342/PI staining based analysis; assay type: functional
COMI [28] = experiment: Inhibition of mitochondrial translation in human COMI cells assessed as decrease in COX2 expression level at 0.5 uM incubated for 24 hrs in the presence of quinupristin and emetine by [35S]-methionine labelling based SDS-PAGE analysis; assay type: functional, cell-based
COMI [29] = experiment: Inhibition of mitochondrial translation in human COMI cells assessed as decrease in COX1 expression level at 0.5 to 5 uM incubated for 48 hrs in the presence of quinupristin by immunoblotting analysis; assay type: functional, cell-based; conditions: dose 0.5-5 µM
COMI [30] = experiment: Inhibition of mitochondrial translation in human COMI cells assessed as decrease in COX1 expression level at 0.5 uM incubated for 24 hrs in the presence of quinupristin and emetine by [35S]-methionine labelling based SDS-PAGE analysis; assay type: functional, cell-based
COMI [31] = experiment: Inhibition of mitochondrial translation in human COMI cells assessed as decrease in ND3 expression level at 0.5 to 5 uM incubated for 48 hrs in the presence of quinupristin by immunoblotting analysis; assay type: functional, cell-based; conditions: dose 0.5-5 µM
COMI [32] = experiment: Growth inhibition of human COMI cells in the presence of quinupristin; assay type: functional
COMI [33] = experiment: Potency index, ratio of temozolomide GI50 to test compound GI50 for human COMI cells in the presence of quinupristin; assay type: functional
[34] = Potency index, ratio of temozolomide GI50 to test compound GI50 for human VIPI cells in the presence of quinupristin; assay type: functional
COMI [35] = experiment: Inhibition of mitochondrial translation in human COMI cells assessed as decrease in ND3 expression level at 0.38 uM incubated for 24 hrs in the presence of emetine by [35S]-methionine labelling based SDS-PAGE analysis; assay type: functional, cell-based
COMI [36] = experiment: Inhibition of mitochondrial translation in human COMI cells assessed as increase in COX4 expression level at 0.5 to 5 uM incubated for 48 hrs in the presence of quinupristin by immunoblotting analysis; assay type: functional, cell-based; conditions: dose 0.5-5 µM
VIPI [37] = experiment: Growth inhibition of human VIPI cells in the presence of quinupristin; assay type: functional
COMI [38] = experiment: Inhibition of mitochondrial translation in human COMI cells assessed as decrease in COX1 expression level at 0.38 uM incubated for 24 hrs in the presence of emetine by [35S]-methionine labelling based SDS-PAGE analysis; assay type: functional, cell-based

CC[C@H]1NC(=O)[C@@H](NC(=O)c2ncccc2O)[C@@H](C)OC(=O)[C@H](c2ccccc2)NC(=O)[C@@H]2CC(=O)[C@H](CS[C@@H]3CN4CCC3CC4)CN2C(=O)[C@H](Cc2ccc(N(C)C)cc2)N(C)C(=O)[C@@H]2CCCN2C1=O [QUINUPRISTIN] ({Picolinoyl(3-OH)}-T[dAbu]P[NMePhe(4-NMe2)][X1][Phg]; ester 1-C)
inhibition (COMI [1]): Active
inhibition (COMI [2]): inactive
GI50 (VIPI [3]): 20.2 µM
GI50 (COMI [4]): 3 µM
inhibition (COMI [5]): Active
inhibition (COMI [6]): Active
GI50 (VIPI [7]): 21.4 µM
inhibition (COMI [8]): Active
RatioGI50 (COMI [9]): 15
RatioGI50 [10]: 15
inhibition (COMI [11]): Active
GI50 (COMI [12]): 6.5 µM
inhibition (COMI [13]): Active
GI50 (COMI [14]): 6.5 µM
inhibition (COMI [15]): inactive
inhibition (COMI [16]): inactive
inhibition (COMI [17]): inactive
inhibition (COMI [18]): inactive
GI50 (VIPI [19]): 20.2 µM
inhibition (COMI [20]): inactive
inhibition (COMI [21]): inactive
inhibition (COMI [22]): Active

CCN(CC)CCS(=O)(=O)[C@@H]1CCN2C(=O)c3coc(n3)CC(=O)C[C@H](O)/C=C(C)/C=C/CNC(=O)/C=C/[C@@H](C)[C@@H](C(C)C)OC(=O)[C@@H]12 [DALFOPRISTIN]
GI50 (VIPI [23]): 20.2 µM
inhibition (COMI [24]): Active
inhibition (COMI [2]): Active
GI50 (COMI [4]): 8.6 µM
inhibition (COMI [25]): Active
GI50 (VIPI [7]): 16.2 µM
inhibition (COMI [26]): Active
GI50 (COMI [27]): 6.5 µM
inhibition (COMI [28]): Active
inhibition (COMI [29]): Active
inhibition (COMI [15]): Active
inhibition (COMI [30]): Active
inhibition (COMI [31]): Active
GI50 (COMI [32]): 6.5 µM
RatioGI50 (COMI [33]): 15
RatioGI50 [34]: 15
inhibition (COMI [35]): Active
inhibition (COMI [18]): Active
inhibition (COMI [36]): Active
GI50 (VIPI [37]): 20.2 µM
inhibition (COMI [38]): Active
inhibition (COMI [21]): Active
